This is an account of results in patent publication US10487117B2, “Antimicrobial peptide for nosocomial infections” (priority 2015, dated 2019).

What is called mortality is the share of the test organisms that died.

Data set [1] concerns pre-established P. aeruginosa biofilm. Put plainly: Biofilm cell mortality, BacTiter-Glo luminescent assay. In kind it is cell-based, Pseudomonas aeruginosa. The following applies: 24 h formed biofilm; 4 h at 37° C.; 10% Triton X-100 as maximum reference; N.D. = not detected at 50 μM. Here is the method: (§1) Bacterial viability was assayed using the BacTiter-Glo™ microbial cell viability kit. Briefly, protein/peptides were dissolved in 10 mM sodium phosphate, 0.1M buffer, pH 7.5, serially diluted from 50 to 0.1 μM and tested in a 96-well microtiter plate containing P. aeruginosa planktonic (OD600˜0.2) or 24 h formed biofilm for 4 h at 37° C. Fifty microliters of BacTiter-Glo™ reagent was added to each well according to the manufacturer's instructions and incubated at room temperature for 15 min. Luminescence was read on a Victor3 plate reader with a 3-s integration time. Fifty percent (ED50) and total inhibitory concentrations were calculated by fitting the data to a dose-response curve.
(§2) As a first approach, the biofilm cell viability was monitored using the BacTiter-Glo™ luminescent assay. Therefore, the antimicrobial action of the studied AMPs was determined on already established P. aeruginosa biolfilms (FIG. 1 and Table 6). […] However, for all the active peptides, the concentrations needed to produce an equivalent effect in biofilms were between 2 to 10 times higher than in planktonic cultures. […] At the same time, we applied the crystal violet technique to assess the peptide ability to disperse pre-established P. aeruginosa biofilms.
(§3) Biofilm formation assay was modified from the previously described protocol (Huedo P. et al. 2014). Briefly, overnight cultures of P. aeruginosa were centrifuged at 5000×g for 5 min, washed and adjusted to an OD600=0.1 in tryptic soy medium (TSB). Two hundred microliters of the bacterial suspension were dispensed in each well of a polystyrene 96-well microtiter plate (Greiner Bio-one, France). The plate was incubated at 37° C. on an orbital shaker (30 rpm). The media was exchanged with fresh pre-warmed TSB after 4 h, in order to remove the non-attached bacteria. After 24 h incubation, the formation of biofilm was then evaluated using the crystal violet staining technique (Stepanovic S. et al. 2000). Briefly, the plates were washed three times with PBS, fixed at 60° C. for 1 h, and stained for 15 min with 200 μl of 0.1% crystal violet. After the dye was discarded, plates were rinsed in PBS and allowed to dry for 30 min at 37° C. Crystal violet was dissolved in 250 μl of 95% ethanol for 15 min, and the OD570 of the extracted dye was measured using a Victor3 plate reader (Perkin-Elmer, Waltham, Mass.).

Experiment in data set [2]: as above
The following applies: 24 h formed biofilm; 4 h at 37° C.; 10% Triton X-100 as maximum reference; N.D. = not detected at 50 μM; read-out: Biofilm cell mortality (%max). In kind it is cell-based, Pseudomonas aeruginosa. Here is the method:
as §1, §2, §3

Residues, ends and D or L forms follow the SMILES beside them.

As for `CC[C@H](C)[C@H](NC(=O)[C@H](CCC(N)=O)NC(=O)CN)C(=O)N[C@H](C(=O)N[C@@H](CC(N)=O)C(=O)N[C@@H](CC(C)C)C(=O)N[C@@H](CCCCN)C(=O)N[C@@H](C)C(=O)N[C@@H](CO)C(=O)N[C@@H](CC(C)C)C(=O)N[C@@H](CC(=O)O)C(=O)N[C@@H](CC(C)C)C(=O)N[C@@H](CC(C)C)C(N)=O)[C@@H](C)CC` [GL-13, GQIINLKASLDLL-NH2] (H-GQIINLKASLDLL-NH2), the “Biofilm cell mortality (%max)” value in data set [1] is reported as “unable to perform any cell mortality”.

In the case of `CC[C@H](C)[C@H](NC(=O)[C@H](CCCCN)NC(=O)[C@H](CCC(=O)O)NC(=O)[C@H](CCCCN)NC(=O)[C@H](CO)NC(=O)[C@H](CCCCN)NC(=O)[C@H](CCCNC(=N)N)NC(=O)[C@H](Cc1ccccc1)NC(=O)[C@H](Cc1ccccc1)NC(=O)[C@H](CC(=O)O)NC(=O)CNC(=O)[C@H](CC(C)C)NC(=O)[C@@H](N)CC(C)C)C(=O)NCC(=O)N[C@@H](CCCCN)C(=O)N[C@@H](CCC(=O)O)C(=O)N[C@@H](Cc1ccccc1)C(=O)N[C@@H](CCCCN)C(=O)N[C@@H](CCCNC(=N)N)C(=O)N[C@H](C(=O)N[C@H](C(=O)N[C@@H](CCC(N)=O)C(=O)N[C@@H](CCCNC(=N)N)C(=O)N[C@H](C(=O)N[C@@H](CCCCN)C(=O)N[C@@H](CC(=O)O)C(=O)N[C@@H](Cc1ccccc1)C(=O)N[C@@H](CC(C)C)C(=O)N[C@@H](CCCNC(=N)N)C(=O)N[C@@H](CC(N)=O)C(=O)N[C@@H](CC(C)C)C(=O)N[C@H](C(=O)N1CCC[C@H]1C(=O)N[C@@H](CCCNC(=N)N)C(=O)N[C@H](C(=O)N[C@@H](CCC(=O)O)C(=O)N[C@@H](CO)C(N)=O)[C@@H](C)O)C(C)C)[C@@H](C)CC)C(C)C)[C@@H](C)CC` [LL-37], the mortality in data set [2] worked out at 64 ± 3.33%. For the molecule `CC[C@H](C)[C@H](NC(=O)CNC(=O)[C@@H](NC(=O)[C@H](CCCCN)NC(=O)[C@H](CCCCN)NC(=O)[C@H](Cc1ccccc1)NC(=O)[C@H](CC(C)C)NC(=O)[C@H](CCCCN)NC(=O)[C@H](Cc1c[nH]c2ccccc12)NC(=O)[C@@H](N)CCCCN)[C@@H](C)CC)C(=O)NCC(=O)N[C@@H](C)C(=O)N[C@H](C(=O)N[C@@H](CC(C)C)C(=O)N[C@@H](CCCCN)C(=O)N[C@H](C(=O)N[C@@H](CC(C)C)C(=O)N[C@H](C(=O)N[C@H](C(=O)NCC(=O)N[C@@H](CC(C)C)C(=O)N1CCC[C@H]1C(=O)N[C@@H](C)C(=O)N[C@@H](CC(C)C)C(=O)N[C@H](C(=O)N[C@@H](CO)C(N)=O)[C@@H](C)CC)[C@@H](C)O)[C@@H](C)O)C(C)C)C(C)C` [CA-M], in data set [2], the mortality stood at 54.3 ± 5.51%.
